1 compound from US20230310356A1, “COMPOSITION FOR PREVENTING, AMELIORATING, OR TREATING BRAIN DAMAGE AND MILD COGNITIVE IMPAIRMENT COMPRISING GLUTAMINE AS EFFECTIVE COMPONENT” (INDUSTRY-ACADEMIC COOPERATION FOUNDATION GYEONGSANG …, priority 2020, published 2023) can be followed below.

One assay concerns nNOS. The assay can be described thus: Double-IHC protein expression after CIS and glutamine supplementation: nNOS. The settings on record: microglial cells in infralimbic cortex and hippocampal CA1 region; glutamine supplementation diet vs stress group. Format: in vivo, mouse. As for the experimental part: (§1) Control (CTL) is a group which received normal diet (common diet with nutritional balance) without any stress, CTL+Gln group is a normal diet group supplemented with glutamine (150 mg/kg of feed) and without any stress, STR is a normal diet group under stress, and STR+Gln group is a normal diet group supplemented with glutamine (150 mg/kg of feed) under stress. The stress group (STR) was individually brought by force to a restrainer for 2 hours every day (i.e., between 2 PM and 4 PM) so that the animals are applied with chronic immobilization stress for 15 days. To determine the specific changes in the brain tissues after glutamine supplementation, double staining was carried out with a cell marker so that the proteins related to a change in ROS/RNS content (i.e., iNOS; nNOS; and p47phox and p67phox as a subunit of NOX) with cell markers are analyzed by double-IHC (immunohistochemistry). Twenty-four hours after applying the last stress, the mouse was anesthetized with avertin, and perfused with PBS (pH 7.4) and 4% formaldehyde. After that, the brain was removed, fixed, and cut to a thickness with 40 μm. […]

Another assay relates to p47phox. The experiment in a line: Double-IHC protein expression after CIS and glutamine supplementation: p47phox. Type of assay: in vivo, mouse. The settings on record: microglial cells in infralimbic cortex and hippocampal CA1 region; glutamine supplementation diet vs stress group. As for the experimental part: as §1
Assay [1] has as its system C57BL/6 female mouse (NonTg). The assay can be described thus: ORT cognitive ability test in normal control mouse with glutamine diet. Format: in vivo. The settings on record: until the 6-months old stage, 150 mg glutamine/kg diet. How it is done: As an animal model for cognitive ability evaluation, a 7-weeks old 3×TG-AD female mouse (8 mice. model of Alzheimer's disease) and a C57BL/6 female mouse (10 mice, control) were selected. The animals of each type were divided into 2 groups, and each group was provided with regular animal feed (i.e., normal diet, ND) or glutamine feed (Gln). The glutamine diet group was allowed to consume the feed containing 150 mg glutamine/kg diet, from 2-months old stage to the end of test (i.e., 6 to 7-months old stage). Health state of the animal was checked by measuring, once a week, the bodyweight of the animal and food intake (FIG. 7A). Cognitive ability test of the mouse as an animal model established above was determined by ORT (object recognition test). The animal was habituated in a box for 2 days. On Day 3, it was allowed to explore two identical objects for 10 minutes. On Day 4, one of the two objects was replaced with a novel object, and then, the animal was allowed to explore further for 5 minutes (FIG. 7B). The time spent by animal for exploring after approaching within 1 cm from the periphery of both objects was measured. After carrying out the calculation using Formula (3) below, DI (discrimination index) was calculated and compared to each other. In the present invention, a different novel object was employed for carrying out each test. […]

For another assay, the system named is normal mouse. The experiment in a line: Cognitive ability of normal mouse after oral administration of glutamine (Y-maze, ORT, OLT). Format: in vivo. How it is done: To determine if there is also an effect of orally administered glutamine on improving the cognitive ability of a normal mouse, 2 hours later glutamine administration, any improvement in cognitive ability was examined. The cognitive ability was tested by using Y-maze for testing short-term memory and ORT and OLT (object location recognition test) for testing long-term memory. Y-maze: To a Y-shaped maze consisting of 3 arms that are spread at 120° angle from each other and designated as A, B, and C, respectively, a mouse was introduced. Then, the spontaneous alternation indicating an entrance into different arms, 3 times consecutively, was applied to the following Formula (4) and the calculation was made (FIG. 10A). Three consecutive spontaneous alternation=[(Number of consecutive entry into different arms)/(Total number of arm entries−2)]×100 Formula (4) ORT/OLT: ORT was carried out for 10 minutes as described above, and, 24 hours later, one of the objects was translocated to a new spot and the animal was allowed to explore again for 5 minutes (FIG. 10B).

Assay [2] has as its system mouse with cognitive impairment caused by chronic immobilization stress (CIS). The experiment in a line: ORT-OLT after oral administration of glutamine following cognitive impairment caused by CIS. Type of assay: in vivo. The conditions noted are these: 2 weeks CIS, then oral glutamine 45 mg/kg bodyweight/day for 1 week. As for the experimental part: After the oral administration of glutamine following an occurrence of cognitive impairment that has been caused by chronic immobilization stress (CIS), the effect of treating cognitive impairment was examined. Two weeks after applying CIS, the cognitive ability was tested by ORT-OLT. After that, while orally administering glutamine for 1 week (45 mg glutamine/kg bodyweight/day), a change in cognitive ability was examined from Day 4 (i.e., ORT-OLT were carried out from Day 4 to Day 7).

Setting [3] is: oral glutamine, long-term memory, compared to the normal mouse.

In the case of `NC(=O)CC[C@H](N)C(=O)O` [glutamine], the “expression amount of nNOS” value with nNOS was “statistically significant decrement”. Besides, the “expression amount of p47phox” value with p47phox is given as “statistically significant decrement”. For the same compound, the “cognitive ability (ORT) change caused by glutamine diet” value in assay [1] was “no change”. Besides, the “spontaneous alternation of Y-maze test” value in the assay on normal mouse (2 hours later glutamine oral administration, short-term memory) is “no difference”. Besides, the “cognitive ability in OLT” value in the assay with normal mouse (setting [3]) is on record as “more enhanced cognitive ability”; in assay [2], “restored to the level of stress-free control group”. Besides, the “cognitive ability in ORT” value with normal mouse (setting [3]) is reported as “more enhanced cognitive ability”; in assay [2], “restored to the level of stress-free control group”.
